The results in this text go back to publication PMC9239997, “Structural basis for mitoguardin-2 mediated lipid transport at ER-mitochondrial membrane contact sites” (Nature Communications, 2022).

Assay in all cases: Clear Native-PAGE, NBD fluorescence
Holding throughout (format): binding

Assay [1] addresses T1, zMiga2 (Danio rerio, UniProt Q5BLE2, W409A).
T1 construct: gene miga2; LD targeting domain, residues 310-568; E. coli BL21(DE3); His6 tag cleaved by TEV
T1 sequence (Q5BLE2 310-568 W409A): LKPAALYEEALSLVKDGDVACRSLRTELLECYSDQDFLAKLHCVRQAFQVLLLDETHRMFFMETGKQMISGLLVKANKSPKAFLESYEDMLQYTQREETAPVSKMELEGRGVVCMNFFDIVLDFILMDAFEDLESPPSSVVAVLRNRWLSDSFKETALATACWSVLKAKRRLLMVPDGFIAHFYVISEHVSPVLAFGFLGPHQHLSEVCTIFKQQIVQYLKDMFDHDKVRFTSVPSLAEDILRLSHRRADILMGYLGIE
The note with it: labelled compound; pH 7.5, on ice, 2 h.

For another assay, the target named is T2, mMIGA1^313–573 (Mus musculus, UniProt Q4QQM5).
T2 construct: gene Miga1; LD targeting domain, residues 313-573; E. coli; His6 tag cleaved by TEV
T2 sequence (Q4QQM5 313-573): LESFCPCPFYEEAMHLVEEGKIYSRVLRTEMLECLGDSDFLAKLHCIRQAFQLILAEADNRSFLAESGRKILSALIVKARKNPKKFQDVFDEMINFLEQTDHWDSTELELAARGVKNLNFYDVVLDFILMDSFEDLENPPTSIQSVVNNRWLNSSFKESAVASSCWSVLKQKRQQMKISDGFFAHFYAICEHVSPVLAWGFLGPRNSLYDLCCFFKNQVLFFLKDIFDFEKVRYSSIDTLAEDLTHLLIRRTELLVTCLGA
The conditions noted are these: labelled compound; pH 7.5, on ice, 2 h.

Assay [2] concerns the target T3, zMiga2 (Danio rerio, UniProt Q5BLE2, F488W).
T3 construct: gene miga2; LD targeting domain, residues 310-568; E. coli BL21(DE3); His6 tag cleaved by TEV
T3 sequence (Q5BLE2 310-568 F488W): T1 sequence (Q5BLE2 310-568 W409A) with A100W, F179W
The note with it: labelled compound; pH 7.5, on ice, 2 h.

Assay [3] concerns the target T4, zMiga2 (Danio rerio, UniProt Q5BLE2, V430W).
T4 construct: gene miga2; LD targeting domain, residues 310-568; E. coli BL21(DE3); His6 tag cleaved by TEV
T4 sequence (Q5BLE2 310-568 V430W): T1 sequence (Q5BLE2 310-568 W409A) with A100W, V121W
The note with it: labelled compound; pH 7.5, on ice, 2 h.

Assay [4] concerns the target T5, zMiga2 (Danio rerio, UniProt Q5BLE2).
T5 construct: gene miga2; LD targeting domain, residues 310-568; E. coli BL21(DE3); His6 tag cleaved by TEV
T5 sequence (Q5BLE2 310-568): T1 sequence (Q5BLE2 310-568 W409A) with A100W
The conditions noted are these: labelled compound; pH 7.5, on ice, 2 h; hydrophobic cavity.

Assay [5] deals with T6, zMiga2 (Danio rerio, UniProt Q5BLE2, V430W/F488W).
T6 construct: gene miga2; LD targeting domain, residues 310-568; E. coli BL21(DE3); His6 tag cleaved by TEV
T6 sequence (Q5BLE2 310-568 V430W/F488W): T1 sequence (Q5BLE2 310-568 W409A) with A100W, V121W, F179W
The note with it: labelled compound; pH 7.5, on ice, 2 h.

Each structure is given as a SMILES string. Changes are numbered by the printed parent chain.

Consider `CCCCCCCC/C=C\CCCCCCCC(=O)OC[C@H](COP(=O)(O)OCCNc1ccc([N+](=O)[O-])c2nonc12)OC(=O)CCCCCCC/C=C\CCCCCCCC` [NBD-PE, 1,2-dioleoyl-sn-glycero-3-phosphoethanolamine-N-(7-nitro-2-1,3-benzoxadiazol-4-yl)], for which the “NBD-PE binding relative to WT” value at zMiga2 [1] is ~ 2 fold. In addition, the results for the “Clear Native-PAGE, NBD fluorescence” value at mMIGA1^313–573 and at zMiga2 [4] were “NBD-PE binding by MIGA1 was markedly lower than that by MIGA2” and “explored the ability of the mutant proteins to interact with NBD-PE”, respectively. The entries for the “lipid binding relative to WT” value on zMiga2 [2], at zMiga2 [3] and at zMiga2 [5] were “the V430W or F488W single mutant showed a slight decrease in NBD-PE binding”, “the V430W or F488W single mutant showed a slight decrease in NBD-PE binding” and “double mutant showed decreased lipid-binding that was less than half of that of the wild type”, respectively.
